Measurements published in article PMC12027946, “Ionic and Non-Ionic Counterparts Based on Bis(Uracilyl)Alkane Moiety with Highest Selectivity Towards Acetylcholinesterase for Protection Against Organophosphate Poisoning and Treating Alzheimer’s Disease” (International Journal of Molecular Sciences, 2025).
“And” between values parts separate entries of the source, which are not always exact repeats. Equal values may be shown once. Read-outs that look alike come from different tables or passages of the source.

Tests used:
[1] = Acute toxicity, single i.p. injection; details: CD-1, mouse, in vivo, ip, mice
Method: Toxicological experiments were performed using a single i.p. injection of the tested compounds in CD-1 mice weighing 20–25 g. Stock solutions of the tested compounds were diluted in ethanol or water. The final ethanol dose was 100 mg/kg. Nine different doses of the tested compounds were used with 12 mice per dose. Animals were observed 7 days after injection, and symptoms of toxicity were recorded.

[2] = test system: mice; assay: Rotarod test; type: in vivo; details: 2b 0.01 mg/kg i.p.; control 173 ± 21 s, p = 0.125
Method: (§1) The ability of effective doses of bisuracil 2b (0.01 mg/kg) and bisuracil 3c (5 mg/kg) to induce incapacitation was evaluated. Locomotor activity, measured as the total distance travelled, and exploratory behaviour, assessed by the number of rearings (head inclinations) and head dips, were evaluated using the open-field test. Additionally, motor coordination was analysed using the rotarod test, where the ability of mice to stay on the rotating rod was recorded. The compounds were administered i.p. 30 min before testing, while the control group received an equivalent volume of the vehicle.
To analyse motor function, rotarod and open-field tests were carried out. Mice were randomly divided into 3 groups (n = 12): a control group of mice and groups of mice treated with tested compounds. Tests were conducted 1 h after compound exposure. To assess motor function, mice were first placed on a rotarod treadmill (Ugo Basile, Italy). Rotation speed was fixed at 15 rpm, and the time that each mouse remained on the rod was recorded as the score, with a maximum duration of 300 s per trial. Each mouse underwent 3 trials. […] To assess motor function, the distance travelled in centimetres in the arena was measured, using VideoMot2 software (Version 8.02 (131) 03-07-17 (TSE Systems, Bad Homburg, Germany).

[3] = target: T1, human AChE (Homo sapiens, UniProt P22303); assay: Inhibition constants (Dixon and Cornish–Bowden plots), AChE; type: biochemical
T1 construct: purchased Sigma-Aldrich
Method: (§2) Experiments were performed using four different concentrations of ATCh as a substrate for AChE, and with BuTCh as a substrate for BuChE. According to the analysis of Dixon and Cornish–Bowden plots for bisuracil 2b, AChE and BuChE inhibition is of a mixed type characterised both by competitive inhibition (Kci) and uncompetitive inhibition (Kui) components. For AChE, Kci was determined to be 55.7 ± 8.1 pM while Kui = 156 ± 18 pM (Figure 3A,B), and Kci = 0.13 ± 0.02 mM while Kui = 0.7 ± 0.06 mM for BuChE (Figure 3C,D). Inhibition of AChE and BuChE by bisuracil 3c was of a mixed type. For the AChE constant, Kci was 0.7 ± 0.04 nM while Kui 4.45 ± 1.76 nM (Figure 4A,B); for the BuChE constant, Kci = 0.04 ± 0.007 мM while Kui = 0.68 ± 0.08 мM (Figure 4C,D).
(§3) A UV-1800 Shimadzu (Shimadzu Co., Kyoto, Japan) spectrophotometer was utilised to conduct the measurements. The final enzyme concentration in the assays was in the picomolar range. In order to ascertain the levels of spontaneous hydrolysis of the enzyme and substrate in the absence of an inhibitor, controls were performed for each substrate concentration. The change in absorption was then recorded over a period of three minutes. The inhibition constants were determined from a Dixon plot and Cornish–Bowden transformation.

[4] = test system: mice poisoned with 2×LD50 of POX; assay: Protection against POX toxicity (pre-treatment); type: in vivo; details: for n/N (mice surviving 5 days after POX poisoning / total): atropine 15 mg/kg i.p. 1 min after POX
Method: The concept of using reversible AChE inhibition as a preventive strategy to enhance the efficacy of traditional antidotes in OP poisoning is a well-established principle. This study explores the potential of bisuracil 2b as a preventive agent to protect AChE from irreversible inhibition caused by paraoxon (POX), a model OP. […] Following POX administration, the standard antidote atropine was given at a dose of 15 mg/kg within one minute. […] Increasing the dose of bisuracil 2b reduced the protective effect in POX poisoned animals (Table 3).
We also estimated the relative risk of death (RRD) as a function of precocity (from min to hours) over a period of 10 h by Cox survival analysis. Statistical differences in the number of surviving animals between experimental groups were tested using the Cox–Mantel multisample logarithmic rank criterion. It was shown that, in mice exposed to 0.42 mg/kg of POX, RRD = 1 (Figure 5). However, in animals that received atropine within 1 min after poisoning, POX-induced mortality was lower (RRD = 0.5; Figure 5).
The tested compound was administered via i.p. before POX injection.

[5] = target: T1, human AChE; assay: In vitro cholinesterase inhibition (Ellman), AChE; type: biochemical
Method: (§4) Inhibitory activities of the tested compounds against AChE and BChE were measured according to Ellman et al.. Enzyme-catalysed hydrolysis of ATCHh was carried out at 25 °C in 0.1 M phosphate buffer (pH 8.0) containing 0.25 U AChE, 1 mM ATCHh as substrates, and 0.1 mM of DTNB. In experiments with BuChE, 0.1 M phosphate buffer (pH 7.0) and BuTChh as a substrate were used. The tested compounds were pre-incubated with the enzyme for two minutes prior to the addition of the substrate and the subsequent recording of hydrolysis kinetics. […] A sample without an inhibitor was used as a control (100% cholinesterase activity). A sample without a substrate was used as a blank. Experiments were performed in triplicate.

[6] = target: T2, human BuChE (Homo sapiens, UniProt P06276); assay: Inhibition constants (Dixon and Cornish–Bowden plots), BuChE; type: biochemical
T2 construct: butyrylcholiesterase from human plasma; purchased Sigma-Aldrich; host or cells: human plasma
Method: as §2, §3

[7] = test system: mice; assay: Open-field test; type: in vivo; details: 2b 0.01 mg/kg, 3c 5 mg/kg, i.p.
Method: as §1
To analyse motor function, rotarod and open-field tests were carried out. Mice were randomly divided into 3 groups (n = 12): a control group of mice and groups of mice treated with tested compounds. Tests were conducted 1 h after compound exposure. To assess motor function, mice were first placed on a rotarod treadmill (Ugo Basile, Italy). Rotation speed was fixed at 15 rpm, and the time that each mouse remained on the rod was recorded as the score, with a maximum duration of 300 s per trial. Each mouse underwent 3 trials. After recording the length of time that mice managed to remain on the rotarod (latency to fall), the average of three trials was used for further analysis. Following the rotarod test, motor function was studied in an open field apparatus (Open Science, Krasnogorsk, Russia), as described in [39]. The numbers of rearing and head dips were estimated as indexes of exploratory activity. To assess motor function, the distance travelled in centimetres in the arena was measured, using VideoMot2 software (Version 8.02 (131) 03-07-17 (TSE Systems, Bad Homburg, Germany).

[8] = target: T3, BChE from human plasma (Homo sapiens, UniProt P06276); assay: In vitro cholinesterase inhibition (Ellman), BuChE; type: biochemical
T3 construct: butyrylcholiesterase from human plasma; purchased Sigma-Aldrich; host or cells: human plasma
Method: as §4

T2 sequence (P06276 29-602): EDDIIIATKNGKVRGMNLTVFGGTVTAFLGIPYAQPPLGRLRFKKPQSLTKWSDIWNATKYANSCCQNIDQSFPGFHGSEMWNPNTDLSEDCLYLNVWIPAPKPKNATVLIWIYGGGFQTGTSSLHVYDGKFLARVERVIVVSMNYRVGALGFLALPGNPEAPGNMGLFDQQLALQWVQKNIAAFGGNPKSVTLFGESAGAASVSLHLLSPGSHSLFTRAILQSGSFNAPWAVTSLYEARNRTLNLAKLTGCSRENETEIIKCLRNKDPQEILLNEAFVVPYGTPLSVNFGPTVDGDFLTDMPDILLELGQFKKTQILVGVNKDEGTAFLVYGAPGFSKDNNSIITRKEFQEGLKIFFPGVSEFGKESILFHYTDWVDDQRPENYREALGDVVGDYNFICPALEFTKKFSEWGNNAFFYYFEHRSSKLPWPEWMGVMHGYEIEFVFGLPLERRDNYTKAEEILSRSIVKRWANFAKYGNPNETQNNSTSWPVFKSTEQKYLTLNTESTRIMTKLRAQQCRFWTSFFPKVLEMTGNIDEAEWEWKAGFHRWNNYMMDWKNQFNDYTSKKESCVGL
T1 sequence (P22303 32-614): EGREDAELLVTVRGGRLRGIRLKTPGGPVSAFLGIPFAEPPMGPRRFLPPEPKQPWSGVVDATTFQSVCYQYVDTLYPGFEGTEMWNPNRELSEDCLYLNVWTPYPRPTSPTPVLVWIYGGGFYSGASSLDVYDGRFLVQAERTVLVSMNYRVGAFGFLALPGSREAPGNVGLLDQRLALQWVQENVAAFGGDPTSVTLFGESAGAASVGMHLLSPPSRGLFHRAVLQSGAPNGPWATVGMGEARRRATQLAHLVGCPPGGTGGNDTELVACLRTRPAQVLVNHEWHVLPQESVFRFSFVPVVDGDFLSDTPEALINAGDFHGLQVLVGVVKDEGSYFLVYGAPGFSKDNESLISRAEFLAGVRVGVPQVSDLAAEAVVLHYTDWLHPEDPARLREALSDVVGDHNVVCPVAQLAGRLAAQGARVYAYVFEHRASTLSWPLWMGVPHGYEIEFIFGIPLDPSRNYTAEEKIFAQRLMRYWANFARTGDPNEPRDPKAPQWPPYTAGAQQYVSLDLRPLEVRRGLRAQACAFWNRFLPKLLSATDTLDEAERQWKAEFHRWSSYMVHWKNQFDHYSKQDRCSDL
T3 sequence (P06276 29-602): as the sequence (P06276 29-602) above

CC[N+](CC)(CCCCCn1c(=O)ccn(CCCCn2c(C)cc(=O)n(C)c2=O)c1=O)Cc1ccccc1C#N [2b, 1,4-{(3,6-Dimethyluracil-1-yl)-[3-(5-o-nitrilebenzyl(diethyl)ammonio)pentyl)-uracil-1-yl]}butane bromide]
LD50 at 7 days ([1]; observed 7 days, read-out: LD50 (median lethal dose)): 5.16 mg/kg
LD50 at 7 days ([1]; read-out: LD50 95% confidence limits): 3.68 to 6.94 mg/kg
mean fall time (rotarod) [2]: 124 ± 20 s
Ki [3]: 0.0557 ± 0.0081 nM
Kui (uncompetitive inhibition constant), AChE ([3]; ATCh as substrate): 156 ± 18 pM
type of AChE inhibition ([3]; Dixon and Cornish–Bowden plots): mixed type
n/N (mice surviving 5 days after POX poisoning / total) ([4]; 2b 0.005 mg/kg i.p. 30 min before POX 0.42 mg/kg i.p.): 8/12
n/N (mice surviving 5 days after POX poisoning / total) ([4]; 2b 0.01 mg/kg i.p. 30 min before POX 0.42 mg/kg i.p.): 10 out of 12 and 10/12
relative risk of death (RRD) vs poisoned group treated only with atropine ([4]; 2b 0.01 mg/kg pre-treatment, p = 0.02): significantly decreased
n/N (mice surviving 5 days after POX poisoning / total) ([4]; 2b 0.05 mg/kg i.p. 30 min before POX 0.42 mg/kg i.p.): 7/12
n/N (mice surviving 5 days after POX poisoning / total) ([4]; 2b 0.1 mg/kg i.p. 30 min before POX 0.42 mg/kg i.p.): 5/12
n/N (mice surviving 5 days after POX poisoning / total) ([4]; 2b 0.5 mg/kg i.p. 30 min before POX 0.42 mg/kg i.p.): 4/12
n/N (mice surviving 5 days after POX poisoning / total) ([4]; 2b 1 mg/kg i.p. 30 min before POX 0.42 mg/kg i.p.): 4/12
relative risk of death (RRD) ([4]; 2b doses above 0.01 mg/kg): did not result in a reduction
IC50 ([5]; AChE IC50, as printed in text and Figure 9): 0.0649 nM
IC50 ([5]; IC50 AChE, Table 1, recombinant human AChE, 25 °C, pH 8.0): 0.06 ± 0.003 nM
Ki [6]: 130000 ± 20000 nM
Kui (uncompetitive inhibition constant), BuChE ([6]; BuTCh as substrate): 0.7 ± 0.06 mM
type of BuChE inhibition ([6]; Dixon and Cornish–Bowden plots): mixed type
distance travelled (open field) vs control group [7]: no significant differences
number of rearings or head dips (open field) [7]: neither of the tested compounds significantly influenced
IC50 [8]: 219000 ± 50000 nM
